Data set [1] concerns the target GLP-1R (Homo sapiens, UniProt P43220). In words: GLP-1R activation: cAMP increase in CHO cells stably expressing GLP-1R. Conditions: cAMP increase, CHO cells stably expressing GLP-1R, 10 point dose response, 30 minutes incubation; read-out: EC50. Type of data set: cell-based.
Data set [2] in a line: Microsomal stability, human liver microsomes (predicted hepatic clearance). Conditions: predicted from in vitro microsomal stability data.

We go through 20 compounds from US11702404B2, “GLP-1R modulating compounds” (priority 2019, dated 2023).

Chain of GLP-1R (P43220 24-463): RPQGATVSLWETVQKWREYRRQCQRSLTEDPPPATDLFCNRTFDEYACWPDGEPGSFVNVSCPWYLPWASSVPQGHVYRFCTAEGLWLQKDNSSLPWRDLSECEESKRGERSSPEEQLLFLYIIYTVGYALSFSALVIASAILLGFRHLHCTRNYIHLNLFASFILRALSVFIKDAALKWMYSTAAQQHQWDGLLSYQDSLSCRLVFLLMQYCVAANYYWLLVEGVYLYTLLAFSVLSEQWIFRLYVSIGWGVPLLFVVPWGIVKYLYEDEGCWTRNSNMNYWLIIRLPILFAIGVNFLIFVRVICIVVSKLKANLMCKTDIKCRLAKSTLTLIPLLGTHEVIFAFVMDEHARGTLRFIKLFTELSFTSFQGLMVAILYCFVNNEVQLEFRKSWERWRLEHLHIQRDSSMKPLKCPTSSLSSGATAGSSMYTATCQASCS

One may read the EC50 as the concentration that produces a half-maximal response. Take `N#Cc1ccc(COc2nccc(-c3cc(F)c(Cc4nc5c(F)cc(C(=O)O)cc5n4C[C@@H]4CCO4)cc3F)n2)c(F)c1` [Example 420, (S)-2-(4-(2-((4-cyano-2-fluorobenzyl)oxy)pyrimidin-4-yl)-2,5-difluorobenzyl)-4-fluoro-1-(oxetan-2-ylmethyl)-1H-benzo[d]imidazole-6-carboxylic acid]: the EC50 in data set [1] came out at 0.05 nM. Besides, the “Predicted Hepatic Clearance (Pred. Cl.)” value in data set [2] is 3.5 mL/min/kg.

On to `CNC(=O)C(Cn1c(Cc2ccc(-c3cccc(OCc4ccc(C#N)cc4F)n3)cc2F)nc2ccc(C(=O)O)cc21)OC` (single isomer, unassigned) [Example 337, 2-(4-(6-((4-cyano-2-fluorobenzyl)oxy)pyridin-2-yl)-2-fluorobenzyl)-1-(2-methoxy-3-(methylamino)-3-oxopropyl)-1H-benzo[d]imidazole-6-carboxylic acid], for which, in data set [1], the EC50 came to 13.7 nM. In addition, the “Predicted Hepatic Clearance (Pred. Cl.)” value in data set [2] is 4.83 mL/min/kg.

`COCCn1c(Cc2ccc(-c3nc(OCc4ccc(C#N)cc4F)c(F)cc3F)cc2F)nc2ccc(C(=O)O)cc21` [Example 73, 2-(4-(6-((4-cyano-2-fluorobenzyl)oxy)-3,5-difluoropyridin-2-yl)-2-fluorobenzyl)-1-(2-methoxyethyl)-1H-benzo[d]imidazole-6-carboxylic acid]: in data set [1], the half-maximal effective concentration (EC50) turned out to be 6.13 nM. Besides, in data set [2], the “Predicted Hepatic Clearance (Pred. Cl.)” value is 4.5 mL/min/kg.

`COCCn1c(Cc2ccc(-c3cccnc3OCc3ccc(C#N)cc3F)cc2F)nc2ccc(C(=O)O)cc21` [Example 180, 2-(4-(2-((4-cyano-2-fluorobenzyl)oxy)pyridin-3-yl)-2-fluorobenzyl)-1-(2-methoxyethyl)-1H-benzo[d]imidazole-carboxylic acid]: the half-maximal effective concentration (EC50) in data set [1] amounted to 257 nM. The “Predicted Hepatic Clearance (Pred. Cl.)” value in data set [2] is 6.33 mL/min/kg.

With `N#Cc1ccc(COc2cccc(-c3cc(F)c(Cc4nc5ccc(C(=O)O)cc5n4Cc4ncco4)cc3F)n2)c(F)c1` [Example 605, 2-(4-(6-((4-cyano-2-fluorobenzyl)oxy)pyridin-2-yl)-2,5-difluorobenzyl)-1-(oxazol-2-ylmethyl)-1H-benzo[d]imidazole-6-carboxylic acid], the EC50 in data set [1] is 1.57 nM. The “Predicted Hepatic Clearance (Pred. Cl.)” value in data set [2] is 5 mL/min/kg.

Regarding `COCCn1c(Cc2cc(F)c(-c3cccc(OCc4ccc(C)cc4)n3)cc2F)nc2ccc(C(=O)O)cc21` [Example 814], the EC50 in data set [1] worked out at 2.14 nM. Moreover, the “Predicted Hepatic Clearance (Pred. Cl.)” value in data set [2] is 6.17 mL/min/kg.

On to `COCCn1c(Cc2ccc(-c3cccc(OCc4cccc5c4OCCC5)n3)cc2F)nc2ccc(C(=O)O)cc21` [Example 241, 2-(4-(6-(chroman-8-ylmethoxy)pyridin-2-yl)-2-fluorobenzyl)-1-(2-methoxyethyl)-1H-benzo[d]imidazole-6-carboxylic acid], for which the half-maximal effective concentration (EC50) in data set [1] was determined as 35.1 nM. Further, the “Predicted Hepatic Clearance (Pred. Cl.)” value in data set [2] was 9.83 mL/min/kg.

With `N#Cc1ccc(COc2cccc(-c3ccc(Cc4nc5ccc(C(=O)O)cc5n4CC4(CF)CC4)c(C#N)c3)n2)c(F)c1` [Example 286, 2-(2-cyano-4-(6-((4-cyano-2-fluorobenzyl)oxy)pyridin-2-yl)benzyl)-1-((1-(fluoromethyl)cyclopropyl)methyl)-1H-benzo[d]imidazole-6-carboxylic acid], the EC50 in data set [1] worked out at 21.2 nM. Also, in data set [2], the “Predicted Hepatic Clearance (Pred. Cl.)” value is 2.62 mL/min/kg.

For the compound `Cc1cnc(Cn2c(Cc3cc(F)c(-c4cccc(OCc5ccc(C#N)cc5F)n4)cc3F)nc3ccc(C(=O)O)cc32)o1` [Example 616], the EC50 in data set [1] worked out at 26.9 nM. Moreover, the “Predicted Hepatic Clearance (Pred. Cl.)” value in data set [2] is 8.33 mL/min/kg.

As for `COCCn1c(Cc2cc(F)c(-c3cccc(OCc4cccc(Br)c4)n3)cc2F)nc2ccc(C(=O)O)cc21` [Example 876], in data set [1], the EC50 was 27.6 nM. Besides, the “Predicted Hepatic Clearance (Pred. Cl.)” value in data set [2] was 1.83 mL/min/kg.

With `N#Cc1ccc(COc2cccc(-c3ccc(Cc4nc5cc(F)c(C(=O)O)cc5n4CC4(CF)CC4)c(F)c3)n2)c(F)c1` [Example 221, 2-(4-(6-((4-cyano-2-fluorobenzyl)oxy)pyridin-2-yl)-2-fluorobenzyl)-5-fluoro-1-((1-(fluoromethyl)cyclopropyl)methyl)-1H-benzo[d]imidazole-6-carboxylic acid], in data set [1], the EC50 was determined as 5.28 nM. In data set [2], the “Predicted Hepatic Clearance (Pred. Cl.)” value was 3.5 mL/min/kg.

For `N#Cc1ccc(COc2nc(-c3ccc(Cc4nc5ccc(C(=O)O)cc5n4CC4(CF)CC4)c(F)c3)ccc2F)c(F)c1` [Example 134, 2-(4-(6-((4-cyano-2-fluorobenzyl)oxy)-5-fluoropyridin-2-yl)-2-fluorobenzyl)-1-((1-(fluoromethyl)cyclopropyl)methyl)-1H-benzo[d]imidazole-6-carboxylic acid], the EC50 in data set [1] amounted to 0.34 nM. The “Predicted Hepatic Clearance (Pred. Cl.)” value in data set [2] is under 1.83 mL/min/kg.

As for `COCCn1c(Cc2ccc(-c3cccc(OCc4ccc(C#N)cc4F)n3)cc2Br)nc2ccc(C(=O)O)cc21` [Example 239, 2-(2-bromo-4-(6-((4-cyano-2-fluorobenzyl)oxy)pyridin-2-yl)benzyl)-1-(2-methoxyethyl)-1H-benzo[d]imidazole-6-carboxylic], the EC50 in data set [1] worked out at 7.49 nM. For the same compound, in data set [2], the “Predicted Hepatic Clearance (Pred. Cl.)” value was under 1.83 mL/min/kg.

Consider `CC(C1CCCO1)n1c(Cc2cc(F)c(-c3cccc(OCc4ccc(C#N)cc4F)n3)cc2F)nc2ccc(C(=O)O)cc21` (stereo not shown) [Example 833], for which the EC50 in data set [1] stood at 6.41 nM. Also, the “Predicted Hepatic Clearance (Pred. Cl.)” value in data set [2] was 9.83 mL/min/kg.

For the compound `CC1(Cn2c(Cc3ccc(-c4cccc(OCc5ccc(C#N)cc5F)n4)cc3F)nc3ccc(C(=O)O)cc32)CCC1` [Example 384, 2-(4-(6-((4-cyano-2-fluorobenzyl)oxy)pyridin-2-yl)-2-fluorobenzyl)-1-((1-methylcyclobutyl)methyl)-1H-benzo[d]imidazole-6-carboxylic acid], in data set [1], the EC50 stood at 1.45 nM. For the same compound, in data set [2], the “Predicted Hepatic Clearance (Pred. Cl.)” value is under 1.83 mL/min/kg.

Regarding `N#Cc1cc(F)c(COc2cccc(-c3cc(F)c(Cc4nc5c(F)cc(C(=O)O)cc5n4Cc4ncco4)cc3F)n2)cc1F` [Example 784], the EC50 in data set [1] amounted to 0.55 nM. In addition, the “Predicted Hepatic Clearance (Pred. Cl.)” value in data set [2] was 1.83 mL/min/kg.

As to `COCCn1c(Cc2cc(F)c(-c3cccc(OCc4ccc(Cl)c(F)c4F)n3)cc2F)nc2ccc(C(=O)O)cc21` [Example 802], the EC50 in data set [1] was determined as 3.64 nM. Further, in data set [2], the “Predicted Hepatic Clearance (Pred. Cl.)” value is 2.33 mL/min/kg.

For the compound `COC1(Cn2c(Cc3cc(F)c(-c4cccc(OCc5ccc(C#N)cc5F)n4)cc3F)nc3ccc(C(=O)O)cc32)COC1` [Example 636], the EC50 in data set [1] was determined as 1.27 nM. Further, in data set [2], the “Predicted Hepatic Clearance (Pred. Cl.)” value is 6.5 mL/min/kg.

Consider `CCn1c(Cn2c(Cc3ccc(-c4cccc(OCc5ccc(C#N)cc5F)n4)cc3F)nc3ccc(C(=O)O)cc32)cnc1C` [Example 519, 2-(4-(6-((4-cyano-2-fluorobenzyl)oxy)pyridin-2-yl)-2-fluorobenzyl)-1-((l-ethyl-2-methyl-1H-imidazol-5-yl)methyl)-1H-benzo[d]imidazole-6-carboxylic acid], for which, in data set [1], the concentration giving a half-maximal response (EC50) was determined as 39.3 nM. For the same compound, the “Predicted Hepatic Clearance (Pred. Cl.)” value in data set [2] is 3.5 mL/min/kg.

On to `COCCn1c(Cc2ccc(-c3nc(OCc4ccc(C#N)cc4F)ccc3F)cc2F)nc2ccc(C(=O)O)cc21` [Example 91, 2-(4-(6-((4-cyano-2-fluorobenzyl)oxy)-3-fluoropyridin-2-yl)-2-fluorobenzyl)-1-(2-methoxyethyl)-1H-benzo[d]imidazole-6-carboxylic acid], for which the EC50 in data set [1] was 2630 nM. Further, the “Predicted Hepatic Clearance (Pred. Cl.)” value in data set [2] was 5 mL/min/kg.
